{
  "source": "paper PMC3302888",
  "about": "“Small-Animal PET Imaging of Amyloid-Beta Plaques with [^11C]PiB and Its Multi-Modal Validation in an APP/PS1 Mouse Model of Alzheimer's Disease” (PLoS ONE, 2012)",
  "key": {"human brain": {"test_system": "human brain", "parameters": "method as in PMID 16291932", "settings": "humans; cited from earlier work"}, "APP/PS1 mouse brain": {"test_system": "APP/PS1 mouse brain", "parameters": "method as in PMID 16291932", "settings": "very old hemizygous APP/PS1 animals; classical Scatchard analysis; cited from earlier work"}, "[1]": {"test_system": "mouse brain tissue homogenate (APP/PS1 hemi-forebrain)", "test": "Radioligand saturation binding assay with [^3H]PiB, mouse brain homogenate", "experimental": "(§1) The frozen mouse hemi-forebrains (50 mg/ml) and human brain samples (100 mg/ml) for the radioligand binding assay were first prepared in tissue homogenization buffer (20 mM Tris base, 1 mM EDTA, 1 mM EGTA, cOmplete Protease Inhibitor Cocktail (Roche Applied Science, Mannheim, Germany)) using a 30 ml hand glass homogenizer (Dounce type, tight fit) (Sartorius Stedim Biotech, Göttingen, Germany) which was used for subsequent ELISA analysis. The stocks were then supplemented with 250 mM sucrose and stored at −70°C for later tracer binding analysis. All other tissue samples were processed for ELISA as reported by Willuweit et al.\n(§2) All brain homogenates were diluted in PBE buffer (10 mM dibasic sodium phosphate, 1 mM EDTA, 10% EtOH) to a final concentration of 1000 µg/ml. Synthetic human Aβ1–40 fibrils (EZBioLab, Carmel, IN, USA) were prepared as described by Lockhart et al. (0.5 mg/ml, pH 7.4, 200 rpm at 37°C for 48 h) and were used as positive control at a final concentration of 10 µg/ml (Figure S8).\n(§3) Nonspecific binding was determined in the presence of 3 µM unlabeled PiB (ABX, Radeberg, Germany) including 1 h preincubation. Each tissue sample was deployed on two 96-well cell culture plates (Greiner Bio-One, Frickenhausen, Germany) to a final reaction volume of 280 µl per well using 8-channel electronic pipettes (Mettler Toledo, Giessen, Germany) giving 24 octuples of data points per sample.\n(§4) The bound and free fractions were seperated by vacuum filtration through 0.3% polyethyleneimine-pretreated GF/B glass filtermats (GE Healthcare/Whatman, Dassel, Germany) using a semi-automated Harvester 96 Mach II M (Tomtec, Hamden, CT, USA). A constant automated 5-cycle pulse-wash program (optimized for flow rate and volume) guaranteed stable harvesting with 1.2 ml PBE washing per well at 2 psi.\n(§5) Filters were cut and incubated in Aquasafe300plus scintillator (Zinsser Analytic, Frankfurt, Germany) for 36 h before counting in a Wallac WinSpectral 1414 liquid scintillation counter (PerkinElmer, Rodgau, Germany).\n(§6) The specific binding signal under these assay conditions was between 56% (human) and 91% (synthetic protein). Data were analyzed using GraphPad Prism version 5.0 d for Mac (GraphPad Software, La Jolla, CA, USA) to estimate the apparent dissociation constant (Kd), the maximal number of binding sites (Bmax) and the in vitro binding potential (BP) using the one-site and two-site global analysis models.\n(§7) Division by Kd in nanomolar units directly results in BP."}, "[2]": {"test_system": "postmortem human brain tissue homogenate (temporal cortex)", "test": "Radioligand saturation binding assay with [^3H]PiB, human brain homogenate", "experimental": "as §1, §2, §3, §4, §5, §6, §7"}, "Aβ plaques": {"test_system": "Aβ plaques", "test": "Small-animal PET of mouse brain with [^11C]PiB, cerebellum as reference region", "format": "in vivo", "settings": "for BPND (MRTM2, Ichise et al., 2003) mean ± SD: neocortex target, cerebellum reference; for PET BPND neocortex: [^3H]PiB/[^11C]PiB cocktail, 30 min scan", "description": "Most of the small-animal PET data was acquired with a microPET FOCUS F120 scanner (Siemens Medical Solutions, Malvern, USA). In the combined multi-modal experiment PET data for the four animals was acquired with a docked Siemens Inveon PET/CT system (Siemens Medical Solutions, Knoxville, USA), [66], [67].\nAfter induction of anesthesia and placement of the catheter systems, the animals were placed with their heads in the center of the field of view and were fixed in the scanner in prone head first position (HFP). At the beginning of the PET scanning procedure, a 9 min transmission scan (^68Ge rod source, Focus F120) or CT scan (Inveon) was performed in all animals.\n[^11C]PiB was given via the catheter system intravenously in a slow bolus, followed by flushing with isotonic saline solution such that the total applied volume was 0.22±0.06 ml. The amount of injected activity was controlled real-time with registered prompts such that they ranged between 150000 to 200000 at the end of [^11C]PiB application, ensuring a dead time <5% at 30 min p.i.. The radioactivity in the syringe was measured immediately before and after injection with a Capintec CRC 15R (Capintec Inc, NJ, USA) dose calibrator. The time between measurements was 2 to 3 min.\nDynamic data acquisition was performed in 3D listmode for 30 or 60 min starting immediately with injection of the tracer. The emission data were normalized and corrected for decay and dead time. The resulting sinograms were reconstructed with FBP (filtered back-projection using a ramp filter with a cut-off at the Nyquist frequency) into 2, 3, 6, 12, 60 and 120 frames of equal length used for motion correction, ratio measurements and image production and 52 frames (24×10 s, 12×30 s, 10×120 s, 6×300 s) and 162 frames (120×1 s, 24×10 s, 8×30 s, 10×300 s) for time-activity-curve (TAC) generation. The image volume consisted of 128×128×95 voxels, with a size of 0.866×0.866×0.796 mm^3 per voxel for the Focus F120 scanner and 128×128×159 voxels, with a size of 0.776×0.776×0.796 mm^3 per voxel for the Inveon scanner.\nTo assess varying PiB retention of individual animals within the study collective and to verify the consistency of results, three quantification methods were used similar to Maeada et al.. First, [^11C]PiB uptake in the target region was divided by [^11C]PiB uptake in the cerebellum as measured in a static 10 min-frame (20–30 min). Second, the tissue ratio methods as proposed by Ito et al. were calculated. Third, the multilinear reference tissue model 2 (MRTM2, [45]) was fitted to cortex time-activity curves (TACs) (merged neocortex) after reduction of parameters by estimating individual efflux rate constants for [^11C]PiB from the reference region (k2′) with the MRTM [45] and four regional cortical time-activity curves.\nParametric images of [^11C]PiB retention (BPND maps (MRTM2)) were generated for four representative mice (Figure 2 and S1). For all analyses, the cerebellum was used as the reference region. To quantify the dynamic data, TACs with high initial time resolution (162 frames: 120×1 s, 24×10 s, 8×30 s, 10×300 s) were used (Figure 1).\nThen, the radioactivity of the whole animal was measured in a Capintec dose calibrator, the animal killed by decapitation, the whole brain taken out and blood drawn for biodistribution and radioactivity measurement. One half of the brain was dissected for regional brain biodistribution (olfactory system, telencephalon, cerebellum and remaining brain structures (diencephalon, midbrain)) and deep-frozen immediately after gamma counting for later ELISA analysis of soluble and insoluble Aβx–40 and Aβx–42. […]"}},
  "note": "Several values for one entry are separate records, joined by “and”; a condition that tells them apart may be missing. Equal entries are not always repeated. Where two headings read alike, the source gives them in different places.",
  "data": [
    {"smiles": "CNc1ccc(-c2nc3ccc(O)cc3s2)cc1", "note": "[[^3H]PiB]", "values": [
      {"measurement": "BP of high-affinity binding sites", "setting": "human brain", "value": 636},
      {"measurement": "BP of the high-affinity component", "setting": "APP/PS1 mouse brain", "value": 78},
      {"measurement": "in vitro binding potential (BP)", "setting": "[1]; mouse control brain (msCTL), total binding not different to nonspecific binding", "value": "~0"},
      {"measurement": "in vitro binding potential (BP)", "setting": "[1]; tg-old mouse brain tissue, single binding site model", "value": "11.9±0.9 and 11.9"},
      {"measurement": "in vitro binding potential (BP)", "setting": "[1]; tgtg-old mouse brain tissue, single binding site model", "value": "69 and 69.2±2.7 and 69.2"},
      {"measurement": "Bmax of the high-affinity component", "setting": "[1]; tgtg-old tissue, two site binding model", "value": "289.3 ± 123.9", "unit": "fmol/mg"},
      {"measurement": "Kd", "setting": "[1]; tgtg-old tissue, two site binding model, read-out: Kd of the high-affinity component", "value": "5.7 ± 4.1", "unit": "nM"},
      {"measurement": "in vitro binding potential (BP)", "setting": "[1]; tgtg-young mouse brain tissue, single binding site model", "value": "14.3±0.9 and 14.3"},
      {"measurement": "in vitro binding potential (BP)", "setting": "[2]; huAD-0 (mild human AD, Cerad-0, Braak II), single binding site model", "value": "~0"},
      {"measurement": "in vitro binding potential (BP)", "setting": "[2]; huAD-C (severe human AD, Cerad-C, Braak V), single binding site model", "value": "38 and 38.2±4.7 and 38.2"},
      {"measurement": "tracer concentration at which saturation binding was reached", "setting": "[2]; huAD-C homogenate", "value": "around 8 nM"},
      {"measurement": "Bmax", "setting": "[2]; huAD-C homogenate, single binding site model", "value": "200 ± 12", "unit": "fmol/mg"},
      {"measurement": "Kd", "setting": "[2]; huAD-C homogenate, single binding site model, read-out: Kd", "value": "5.2 ± 0.9", "unit": "nM"},
      {"measurement": "Bmax of the high-affinity component", "setting": "[2]; huAD-C, two site binding model", "value": "156.7 ± 7.3", "unit": "fmol/mg"},
      {"measurement": "Kd", "setting": "[2]; huAD-C, two site binding model, read-out: Kd of the high-affinity component", "value": "3.4 ± 1.4", "unit": "nM"},
      {"measurement": "in vitro binding potential (BP)", "setting": "[2]; huCTL (human control brain, Cerad-0, Braak I), single binding site model", "value": "~0"}
    ]},
    {"smiles": "[11CH3]Nc1ccc(-c2nc3ccc(O)cc3s2)cc1", "note": "[[^11C]PiB, N-[^11C-methyl]-6-OH-BTA-1]", "values": [
      {"measurement": "BPND (MRTM2, Ichise et al., 2003) mean ± SD", "setting": "Aβ plaques; ctl-old (N = 5)", "value": "-0.08 ± 0.01"},
      {"measurement": "PET BPND neocortex", "setting": "Aβ plaques; individual animals AD1, AD2 (tgtg-young, 9 months)", "value": 0.06},
      {"measurement": "PET BPND neocortex", "setting": "Aβ plaques; individual animals CTL1, CTL2 (ctl-young)", "value": "−0.06 and −0.07"},
      {"measurement": "BPND (MRTM2, Ichise et al., 2003) mean ± SD", "setting": "Aβ plaques; tg-old (N = 5)", "value": "0.28 ± 0.06"},
      {"measurement": "BPND (MRTM2, Ichise et al., 2003) mean ± SD", "setting": "Aβ plaques; tgtg-old (N = 7)", "value": "0.51 ± 0.13"},
      {"measurement": "BPND (MRTM2, Ichise et al., 2003) mean ± SD", "setting": "Aβ plaques; tgtg-young (N = 5)", "value": "0.12 ± 0.04"}
    ]}
  ]
}
